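Protocol summary: plate cells (96-well), add compound at 5 concentrations, incubate 48 h, interpolate endpoints linearly. Here, GI50 denotes the concentration required for 50% inhibition of growth. TGI denotes the concentration required for complete inhibition of growth.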
Assays:
Experiment in all cases: DTP human tumour cell line panel, 48 h
LOX IMVI melanoma = test system: LOX IMVI melanoma
RPMI-8226 leukemia = test system: RPMI-8226 leukemia
MDA-MB-231 breast = test system: MDA-MB-231 breast
IGROV1 ovarian = test system: IGROV1 ovarian
RXF 393 renal = test system: RXF 393 renal
T-47D breast = test system: T-47D breast
HOP-62 NSCLC = test system: HOP-62 NSCLC
SW-620 colon = test system: SW-620 colon
SF-268 CNS = test system: SF-268 CNS
SF-295 CNS = test system: SF-295 CNS
DU-145 prostate = test system: DU-145 prostate
COLO 205 colon = test system: COLO 205 colon
TK-10 renal = test system: TK-10 renal
UACC-62 melanoma = test system: UACC-62 melanoma
OVCAR-3 ovarian = test system: OVCAR-3 ovarian
SN12C renal = test system: SN12C renal
OVCAR-5 ovarian = test system: OVCAR-5 ovarian
U251 CNS = test system: U251 CNS
MCF7 breast = test system: MCF7 breast
KM12 colon = test system: KM12 colon
EKVX NSCLC = test system: EKVX NSCLC
786-0 renal = test system: 786-0 renal
ACHN renal = test system: ACHN renal
NCI-H522 lung = test system: NCI-H522 lung
HCT-116 colon = test system: HCT-116 colon
M14 melanoma = test system: M14 melanoma
HOP-92 NSCLC = test system: HOP-92 NSCLC
NCI-H23 lung = test system: NCI-H23 lung
CAKI-1 renal = test system: CAKI-1 renal
CCRF-CEM leukemia = test system: CCRF-CEM leukemia
SK-OV-3 ovarian = test system: SK-OV-3 ovarian
MALME-3M melanoma = test system: MALME-3M melanoma
BT-549 breast = test system: BT-549 breast
UO-31 renal = test system: UO-31 renal
NCI/ADR-RES ovarian = test system: NCI/ADR-RES ovarian
OVCAR-8 ovarian = test system: OVCAR-8 ovarian
A549 NSCLC = test system: A549 NSCLC
MOLT-4 leukemia = test system: MOLT-4 leukemia
SK-MEL-28 melanoma = test system: SK-MEL-28 melanoma
SNB-19 CNS = test system: SNB-19 CNS
MDA-MB-435 = test system: MDA-MB-435
SK-MEL-2 melanoma = test system: SK-MEL-2 melanoma
HT29 colon = test system: HT29 colon
OVCAR-4 ovarian = test system: OVCAR-4 ovarian
K-562 leukemia = test system: K-562 leukemia
SR leukemia = test system: SR leukemia
NCI-H460 lung = test system: NCI-H460 lung
HCT-15 colon = test system: HCT-15 colon
PC-3 prostate = test system: PC-3 prostate

For COc1cc2c(cc1OCCCOc1cc3c(cc1OC)C(=O)N1C[C@H](F)C[C@H]1C=N3)N=C[C@@H]1C[C@@H](F)CN1C2=O, the GI50 (LOX IMVI melanoma) was 2.41 µM, the TGI (LOX IMVI melanoma) was 10.5 µM and the GI50 (RPMI-8226 leukemia) was 2.01 µM. It also gave a TGI (RPMI-8226 leukemia) of 5.79 µM, a GI50 (MDA-MB-231 breast) of 16 µM and a TGI (MDA-MB-231 breast) of 31.3 µM. It also gave a GI50 (IGROV1 ovarian) of 1.89 µM, a TGI (IGROV1 ovarian) of 5.88 µM and a GI50 (RXF 393 renal) of 2.4 µM. The TGI (RXF 393 renal) was 7.6 µM, the GI50 (T-47D breast) was 15.9 µM and the TGI (T-47D breast) was 58 µM. It also gave a GI50 (HOP-62 NSCLC) of 6.2 µM, a TGI (HOP-62 NSCLC) of 19.3 µM and a GI50 (SW-620 colon) of 4.2 µM. The TGI (SW-620 colon) was 20 µM, the GI50 (SF-268 CNS) was 2.26 µM and the TGI (SF-268 CNS) was 6.01 µM. For the same molecule, the GI50 (SF-295 CNS) was 5.36 µM, the TGI (SF-295 CNS) was 18.1 µM and the GI50 (DU-145 prostate) was 3.44 µM. For the same molecule, the TGI (DU-145 prostate) was 14.7 µM, the GI50 (COLO 205 colon) was 14.4 µM and the TGI (COLO 205 colon) was 27.4 µM. The GI50 (TK-10 renal) was 15 µM, the TGI (TK-10 renal) was 28.2 µM and the GI50 (UACC-62 melanoma) was 4.79 µM. It also gave a TGI (UACC-62 melanoma) of 17.5 µM, a GI50 (OVCAR-3 ovarian) of 9.75 µM and a TGI (OVCAR-3 ovarian) of 26 µM. The GI50 (SN12C renal) was 5.6 µM, the TGI (SN12C renal) was 19.2 µM and the GI50 (OVCAR-5 ovarian) was 13.2 µM. The TGI (OVCAR-5 ovarian) was 25.9 µM, the GI50 (U251 CNS) was 1.96 µM and the TGI (U251 CNS) was 4.46 µM. For the same molecule, the GI50 (MCF7 breast) was 3.09 µM, the TGI (MCF7 breast) was 18.1 µM and the GI50 (KM12 colon) was 12.7 µM. It also gave a TGI (KM12 colon) of 26.7 µM, a GI50 (EKVX NSCLC) of 18.7 µM and a TGI (EKVX NSCLC) of 35.5 µM. The GI50 (786-0 renal) was 8.45 µM, the TGI (786-0 renal) was 20.6 µM and the GI50 (ACHN renal) was 10.5 µM. The TGI (ACHN renal) was 31.8 µM, the GI50 (NCI-H522 lung) was 1.88 µM and the TGI (NCI-H522 lung) was 4.59 µM. The GI50 (HCT-116 colon) was 6.4 µM, the TGI (HCT-116 colon) was 42.8 µM and the GI50 (M14 melanoma) was 3.52 µM. For the same molecule, the TGI (M14 melanoma) was 16.4 µM, the GI50 (HOP-92 NSCLC) was 5.18 µM and the TGI (HOP-92 NSCLC) was 18 µM. It also gave a GI50 (NCI-H23 lung) of 5.83 µM, a TGI (NCI-H23 lung) of 17.8 µM and a GI50 (CAKI-1 renal) of 4.83 µM. For the same molecule, the TGI (CAKI-1 renal) was 17.6 µM, the GI50 (CCRF-CEM leukemia) was 3.8 µM and the TGI (CCRF-CEM leukemia) was 51.7 µM. For the same molecule, the GI50 (SK-OV-3 ovarian) was 17.9 µM, the TGI (SK-OV-3 ovarian) was 32.9 µM and the GI50 (MALME-3M melanoma) was 4.28 µM. For the same molecule, the TGI (MALME-3M melanoma) was 18.1 µM, the GI50 (BT-549 breast) was 3.36 µM and the TGI (BT-549 breast) was 17.9 µM. For the same molecule, the GI50 (UO-31 renal) was 13.2 µM, the TGI (UO-31 renal) was 26 µM and the GI50 (NCI/ADR-RES ovarian) was 11.9 µM. For the same molecule, the TGI (NCI/ADR-RES ovarian) was 26 µM, the GI50 (OVCAR-8 ovarian) was 6.3 µM and the TGI (OVCAR-8 ovarian) was 18.5 µM. The GI50 (A549 NSCLC) was 13.6 µM, the TGI (A549 NSCLC) was 28.5 µM and the GI50 (MOLT-4 leukemia) was 1.33 µM. It also gave a TGI (MOLT-4 leukemia) of 4.3 µM, a GI50 (SK-MEL-28 melanoma) of 15.7 µM and a TGI (SK-MEL-28 melanoma) of 29.9 µM. For the same molecule, the GI50 (SNB-19 CNS) was 14 µM, the TGI (SNB-19 CNS) was 27.7 µM and the GI50 (MDA-MB-435) was 14.3 µM. For the same molecule, the TGI (MDA-MB-435) was 27.4 µM, the GI50 (SK-MEL-2 melanoma) was 2.04 µM and the TGI (SK-MEL-2 melanoma) was 5.71 µM. For the same molecule, the GI50 (HT29 colon) was 17.3 µM, the TGI (HT29 colon) was 41.9 µM and the GI50 (OVCAR-4 ovarian) was 16.2 µM. For the same molecule, the TGI (OVCAR-4 ovarian) was 31.7 µM, the GI50 (K-562 leukemia) was 2.98 µM and the TGI (K-562 leukemia) was 12.7 µM. It also gave a GI50 (SR leukemia) of 1.54 µM, a TGI (SR leukemia) of 6.38 µM and a GI50 (NCI-H460 lung) of 6.15 µM. It also gave a TGI (NCI-H460 lung) of 20.1 µM, a GI50 (HCT-15 colon) of 10.3 µM and a TGI (HCT-15 colon) of 23.6 µM. For the same molecule, the GI50 (PC-3 prostate) was 12.6 µM and the TGI (PC-3 prostate) was 37.3 µM.
